For assay [1], the target named is recombinant firefly luciferase (Photinus pyralis, UniProt P08659). In words: biochemical. Particulars: read-out: rLuc IC50.
Assay [2] relates to P. vivax patient isolates, exoerythrocytic forms (schizonts and hypnozoites). Put plainly: P. vivax liver stage assay in HC04 cells (immunofluorescence). Particulars: HC04 cells treated 24 h before sporozoites, nanomolar concentrations, counted day 7.
For assay [3], the system named is HepG2-A16-CD81 hepatocytes. Put plainly: HepG2 cytotoxicity screening (CellTiter-Glo). Particulars: HepG2-A16-CD81, read-out: HepG2 tox IC50.
For assay [4], the system named is P. berghei liver stage (PbLuc). Put plainly: P. berghei luciferase liver stage (PbLuc) assay in HepG2-A16-CD81 hepatocytes. In kind it is cell-based, Plasmodium berghei. Particulars: 48 h liver stage, HepG2-A16-CD81; for pIC50: Plasmodium berghei, HepG2-A16-CD81, 48 h, read-out: Pbluc (EEF) IC50.
Assay [5] deals with P. falciparum asexual blood stage (wild-type and DDD01061024-resistant Dd2-B2 clones). In words: Lactate dehydrogenase (LDH) asexual blood stage assay. In kind it is cell-based, Plasmodium falciparum. Particulars: for pIC50: Plasmodium falciparum. An excerpt: Mutations within this site, and indeed at our V259L residue, were previously reported using other known cytochrome b inhibitors including ELQ400[49] and RYL-552.[50]
(§1) Figure S3. DDD01061024 is a cytochrome bc1 inhibitor.
The dual stage inhibitor, DDD01061024, is shown occupying the Q0 site (residues outlined in orange) of a Pf Cyt Bc1 homology model (from PDB: 1BE3) (a). A local V259L substitution (red) in mutant clones may destabilize the interactions within this pocket, helping resistant clones tolerate higher doses of the inhibitor (b). DDD01061024-resistannt mutants show cross-resistance to atovaquone (c), another multistage active antimalarial which targets the Q0 binding site. Dose dependent inhibition was determined using a metabolic endpoint (LDH) before normalizing to controls (n=2). Measuring the percentage of PbGFP infected hepatocytes using a high content imaging system validates the liver-stage potency of DDD01061024 in a fluorescence-based model (d). Infected hepatocytes were counted using luminescence-independent high content imaging in treated wells and normalized to controls over two replicates.
(1 picture or pasted object on this page, not shown here)

Assay [6] has as its system P. falciparum Dd2. Put plainly: SYBR green I asexual blood stage proliferation assay (96 h). Particulars: Plasmodium falciparum. In kind it is cell-based, Plasmodium falciparum.
Assay [7] concerns P. berghei-GFP (PbGFP) liver stage. In words: P. berghei-GFP liver stage high content imaging in Huh7.5.1 hepatocytes. The format is cell-based. Particulars: Plasmodium berghei, Huh-7.5.1, 48 h, read-out: liver stage high content imaging assay IC50. How it is done:
For the fluorescent liver stage validation, roughly 2500 P. berghei-GFP (PbGFP) sporozoites[76] were dissected from mosquitoes provided by the NYU Insectary Core Facility and seeded onto a lawn of 5000 Huh7.5.1 hepatocytes in 384-well plates. These assay plates were pretreated with DDD01061024 in 8-point dose response (10–4.57 × 10^–3 μM), with atovaquone (0.5–3.91 × 10^–3 μM) and DMSO (0.5%) as positive and negative controls, respectively. Unlike our standard HepG2 cell line, these Huh7.5.1 cells lack GFP expression, making it preferable for these experiments. After a 48 h incubation in the presence of our test compounds, the presence of GFP positive infected cells were imaged and counted using the Operetta High-content Imaging System (PerkinElmer).
as §1
The dual stage inhibitor, DDD01061024, is shown occupying the Q0 site (residues outlined in orange) of a Pf Cyt Bc1 homology model (from PDB: 1BE3) (a). […] Dose dependent inhibition was determined using a metabolic endpoint (LDH) before normalizing to controls (n=2). Measuring the percentage of PbGFP infected hepatocytes using a high content imaging system validates the liver-stage potency of DDD01061024 in a fluorescence-based model (d). Infected hepatocytes were counted using luminescence-independent high content imaging in treated wells and normalized to controls over two replicates. […]

The test system of assay [8] is P. falciparum Dd2 (PfLuc) line expressing firefly luciferase, asexual blood stage. In words: microbe, parasite or virus in culture. In kind it is cell-based, Plasmodium falciparum. Particulars: for pIC50 / Emax: DD2.

Structures are written as SMILES. pIC50: −log10 of the molar value. Read-outs that look alike come from different tables or passages of the source. Where only a bound is given, the exact number is not on record here.

Sequence of recombinant firefly luciferase (P08659 whole entry): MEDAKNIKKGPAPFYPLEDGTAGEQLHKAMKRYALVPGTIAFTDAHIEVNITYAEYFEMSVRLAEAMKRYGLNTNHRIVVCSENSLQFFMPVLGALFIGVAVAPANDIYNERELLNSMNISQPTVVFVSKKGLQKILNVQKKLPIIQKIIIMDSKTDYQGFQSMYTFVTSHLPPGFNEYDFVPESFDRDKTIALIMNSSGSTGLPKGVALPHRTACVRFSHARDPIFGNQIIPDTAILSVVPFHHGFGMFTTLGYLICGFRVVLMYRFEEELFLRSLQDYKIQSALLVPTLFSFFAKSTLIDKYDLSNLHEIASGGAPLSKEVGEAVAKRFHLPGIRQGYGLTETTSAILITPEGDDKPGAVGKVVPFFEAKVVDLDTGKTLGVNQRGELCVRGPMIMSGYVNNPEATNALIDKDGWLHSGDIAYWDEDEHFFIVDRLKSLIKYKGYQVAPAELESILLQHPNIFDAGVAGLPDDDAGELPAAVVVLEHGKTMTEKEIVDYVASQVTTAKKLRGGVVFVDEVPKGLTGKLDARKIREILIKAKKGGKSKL

On to `Cc1cc(NC(=O)C(C)C)n(-c2nc(C)c(C)c(=O)[nH]2)n1` [DDD01027481], for which the pIC50 was < 4.30 in assay [1], < 4.60 in assay [3] and 6.86 in assay [4]. Moreover, in assay [2], the “P. vivax hypnozoites or schizonts after treatment” value is “no detectable hypnozoites or schizonts”.
On the same counts, the results for `CCc1c(C)nc(-n2nc(C3CC3)cc2NC(C)=O)[nH]c1=O` [DDD01027733] are < 4.30, < 4.60, 7.02 and “no detectable hypnozoites or schizonts”.
Regarding `Cc1ccc(-c2ccc(C3CNCCO3)nc2)cc1` (stereo not shown) [DDD01061024], the negative-log IC50 (pIC50) in assay [1] was 8.49; in assay [3] it was < 4.30; in assay [5] (DD2, read-out: LDH ABS assay IC50), 6.28; in assay [6] (96 h, Dd2, read-out: 96 h SYBR green ABS IC50) it was 6.46; in assay [7], 6.43; in assay [4], > 9.85. Moreover, the negative logarithm of the IC50 (pIC50) in assay [8] (Plasmodium falciparum, 8-pt dose response, 96hr, read-out: CDD P. falciparum Luciferase ABS 8-pt Reconfirmation Dose Response (96hr): IC50) is 6.70; in assay [8] (Plasmodium falciparum, 11-pt dose response, 96hr, read-out: CDD P. falciparum Luciferase ABS 11-pt Reconfirmation Dose Response (96hr): IC50) it was 6.24. Besides, the Emax amounted to 98.9% in assay [6] (DD2, Sybr Green I, 11-pt dose response, 96hr, read-out: CDD P. falciparum Sybr Green I ABS 11-pt Reconfirmation Dose Response (96hr): Maximum inhibition (%)); 99.6% in assay [8] (Plasmodium falciparum, 11-pt dose response, 48hr, read-out: CDD P. falciparum Luciferase ABS 11-pt Reconfirmation Dose Response (48hr): Maximum inhibition (%)); 99.5% in assay [8] (Plasmodium falciparum, 11-pt dose response, 96hr, read-out: CDD P. falciparum Luciferase ABS 11-pt Reconfirmation Dose Response (96hr): Maximum inhibition (%)). Besides, the “Pbluc (EEF) IC50” value in assay [4] is “submicromolar”. Besides, in assay [8] (Plasmodium falciparum, DD2, read-out: CDD P. falciparum Luciferase ABS 11-pt Reconfirmation Dose Response (48hr): IC50 (μM), 11-pt dose response, 48hr), the IC50 came to 0.533 µM. Also, in assay [8] (asexual blood stage, assay format not given), the “ABS IC50” value is listed as “submicromolar”.
As to `O=C1C(O)=C([C@H]2CC[C@H](c3ccc(Cl)cc3)CC2)C(=O)c2ccccc21` [atovaquone], the “fold increase of IC50, DDD01061024 mutants vs wild-type” value in assay [5] is 11 fold. The pIC50 was 9.42 in assay [5] (DD2, read-out: IC50 against wild-type parasites) and 8.38 in assay [5] (DD2, read-out: IC50 in DDD01061024 mutants).
